One data set deals with HCoV-229E. The data set can be described thus: Cytopathic effect (CPE) reduction assay with HCoV-229E in HEL cells. It is filed as cell-based, human coronavirus 229E. Conditions: for EC50: Human coronavirus 229E, 120 h, HCoV-229E-infected HEL cells, five days at 35 °C; for Selectivity Index Microscopy: ratio of MCC to EC50-microscopy; for Selectivity Index Microscopy / Selectivity Index MTS: only values of 10 or higher shown; for Selectivity Index MTS: ratio of CC50 to EC50-MTS.

The test system of data set [1] is human embryonic lung (HEL) fibroblast cells. As to conditions: mock-infected HEL cells; microscopically visible alterations in cell morphology.
Another data set can be described thus: in vitro. Conditions: human.
[2] abbreviates: protection against virus-induced CPE by MTS cell viability assay, read-out: Antiviral EC50 MTS.
The mark [3] stands for this setting: protection against virus-induced CPE by microscopic scoring, read-out: Antiviral EC50 Microscopy.

Results on 28 compounds are retold here after PMC9416004, “A Versatile Class of 1,4,4-Trisubstituted Piperidines Block Coronavirus Replication In Vitro” (Pharmaceuticals, 2022).

Read-outs that look alike come from different tables or passages of the source.

`COC(=O)C[C@H](NC(=O)OC(C)(C)C)C(=O)N(Cc1ccc(F)cc1)C1(C(=O)NCS(=O)(=O)c2ccc(C)cc2)CCN(Cc2ccccc2)CC1` [Compound 14]: the 50% effective concentration (EC50) (as a rule, the midpoint of the concentration-response curve) with HCoV-229E (setting [2]) worked out at 30 ± 6 µM; in the data set with HCoV-229E (setting [3]), 57 ± 18 µM. Besides, in data set [1], the “Cytotoxicity MCC (minimal cytotoxic concentration)” value (“Cytotoxicity MCC” for short) is 100 µM. The same compound came in with a CC50 in the data set “in vitro” of 78 ± 11 µM.
On the same counts, the results for `COC(=O)C[C@H](NC(=O)OC(C)(C)C)C(=O)N(Cc1ccccc1)C1(C(=O)NC(C)(C)C)CCN(Cc2ccccc2)CC1` [Compound 15, Methyl(S)-4-(benzyl(1-benzyl-4-tert-butylcarbamoylpiperidin-4-yl)amino)-3-tert-butoxycarbonylamino-4-oxobutanoate] are 25 µM, 25 µM, above 100 µM and 78 ± 7 µM.
On the same counts, the results for `COC(=O)C[C@H](NC(=O)OC(C)(C)C)C(=O)N(Cc1ccccc1)C1(C(=O)NC2CCCCC2)CCN(Cc2ccccc2)CC1` [Compound 16, Methyl(S)-4-(benzyl(1-benzyl-4-cyclohexylcarbamoylpiperidin-4-yl)amino)-3-tert-butoxycarbonylamino-4-oxobutanoate] are 10 µM, 16 ± 3 µM, at least 40 µM and 42 ± 4 µM.
As for `COC(=O)CNC(=O)C1(N(Cc2ccccc2)C(=O)[C@H](CC(=O)OC)NC(=O)OC(C)(C)C)CCN(Cc2ccccc2)CC1` [Compound 17], the half-maximal effective concentration (EC50) with HCoV-229E (setting [2]) came out at 75 ± 8 µM; with HCoV-229E (setting [3]), 68 ± 3 µM. Moreover, in data set [1], the “Cytotoxicity MCC” value is above 100 µM. For the same compound, the CC50 in the data set “in vitro” is above 100 µM.
On the same counts, the results for `COC(=O)C[C@H](NC(=O)OC(C)(C)C)C(=O)NC1(C(=O)NCc2ccccc2)CCN(Cc2ccccc2)CC1` [Compound 18] are above 100 µM, 55 ± 16 µM, at least 100 µM and 48 ± 8 µM.
Take `COC(=O)C[C@H](NC(=O)OC(C)(C)C)C(=O)N(C)C1(C(=O)NCc2ccccc2)CCN(Cc2ccccc2)CC1` [Compound 19]: the EC50 in the data set with HCoV-229E (setting [2]) was above 100 µM; in the data set with HCoV-229E (setting [3]), 14 ± 1 µM. Also, the “Cytotoxicity MCC” value in data set [1] amounted to 100 µM. The CC50 in “in vitro” was determined as 18 ± 2 µM.
On the same counts, the results for `CCC(C)N(C(=O)[C@H](CC(=O)OC)NC(=O)OC(C)(C)C)C1(C(=O)NCc2ccccc2)CCN(Cc2ccccc2)CC1` (some centres unmarked) [Compound 20] are 13 ± 1 µM, 14 ± 1 µM, 100 µM and 31 ± 3 µM.
On the same counts, the results for `COC(=O)C[C@H](NC(=O)OC(C)(C)C)C(=O)N(C1CC1)C1(C(=O)NCc2ccccc2)CCN(Cc2ccccc2)CC1` [Compound 21] are above 100 µM, 12 ± 0.4 µM, 50 µM and 14 ± 3 µM.
Consider `COC(=O)C[C@H](NC(=O)OC(C)(C)C)C(=O)N(Cc1ccc(C)cc1)C1(C(=O)NCc2ccccc2)CCN(Cc2ccccc2)CC1` [Compound 22], for which the EC50 worked out at 4.3 ± 0.6 µM in the data set on HCoV-229E (setting [2]) and 3.1 µM in the data set with HCoV-229E (setting [3]). For the same compound, in the data set on HCoV-229E, the “Selectivity Index Microscopy” value was found to be 24. In data set [1], the “Cytotoxicity MCC” value is on record as 75 µM. Moreover, the CC50 in the data set “in vitro” was 31 ± 10 µM.
Regarding `COC(=O)C[C@H](NC(=O)OC(C)(C)C)C(=O)N(Cc1ccc([N+](=O)[O-])cc1)C1(C(=O)NCc2ccccc2)CCN(Cc2ccccc2)CC1` [Compound 23], the EC50 in the data set with HCoV-229E (setting [2]) was 4 ± 0.6 µM. Besides, the EC50 in the data set on HCoV-229E (setting [3]) was determined as 3.1 µM. Further, in the data set with HCoV-229E, the “Selectivity Index MTS” value is given as 12 and the “Selectivity Index Microscopy” value was determined as 24. Also, the “Cytotoxicity MCC” value in data set [1] is 75 µM. In “in vitro”, the CC50 was determined as 49 ± 6 µM.
For the compound `COC(=O)C[C@H](NC(=O)OC(C)(C)C)C(=O)N(Cc1ccc(C(F)(F)F)cc1)C1(C(=O)NCc2ccccc2)CCN(Cc2ccccc2)CC1` [Compound 24], the half-maximal effective concentration (EC50) in the data set on HCoV-229E (setting [2]) worked out at 4.2 ± 1 µM; with HCoV-229E (setting [3]), 3.1 µM. Further, the “Cytotoxicity MCC” value in data set [1] is given as 25 µM. In addition, the CC50 in “in vitro” came out at 11 ± 1 µM.
Turning to `COC(=O)C[C@H](NC(=O)OC(C)(C)C)C(=O)N(Cc1ccc(Cl)cc1)C1(C(=O)NCc2ccccc2)CCN(Cc2ccccc2)CC1` [Compound 25], the EC50 with HCoV-229E (setting [2]) was 3.2 ± 0.2 µM; with HCoV-229E (setting [3]), 3.1 µM. Moreover, in data set [1], the “Cytotoxicity MCC” value came to 50 µM. Moreover, the CC50 in “in vitro” is 12 µM.
Consider `COC(=O)C[C@H](NC(=O)OC(C)(C)C)C(=O)N(Cc1ccccc1F)C1(C(=O)NCc2ccccc2)CCN(Cc2ccccc2)CC1` [Compound 26], for which the concentration giving a half-maximal response (EC50) in the data set on HCoV-229E (setting [2]) is 15 ± 2 µM; with HCoV-229E (setting [3]), 12 ± 1 µM. Further, the “Cytotoxicity MCC” value in data set [1] worked out at 100 µM. Also, the CC50 in the data set “in vitro” was determined as 44 ± 1 µM.
For the compound `COC(=O)C[C@H](NC(=O)OC(C)(C)C)C(=O)N(Cc1cccc(F)c1)C1(C(=O)NCc2ccccc2)CCN(Cc2ccccc2)CC1` [Compound 27], the EC50 in the data set with HCoV-229E (setting [2]) was determined as 14 ± 1 µM; in the data set on HCoV-229E (setting [3]), 10 ± 3 µM. In the data set on HCoV-229E, the “Selectivity Index Microscopy” value is given as 10. Also, in data set [1], the “Cytotoxicity MCC” value came out at 100 µM. In “in vitro”, this compound had a CC50 of 46 ± 4 µM.
Take `COC(=O)C[C@H](NC(=O)OC(C)(C)C)C(=O)N(Cc1ccc(F)c(F)c1)C1(C(=O)NCc2ccccc2)CCN(Cc2ccccc2)CC1` [Compound 28]: the half-maximal effective concentration (EC50) in the data set on HCoV-229E (setting [2]) worked out at 3.7 ± 1 µM; in the data set with HCoV-229E (setting [3]), 6 ± 2.6 µM. Further, the “Cytotoxicity MCC” value in data set [1] amounted to 44 µM. In “in vitro”, this compound gave a CC50 of 23 ± 11 µM.
As for `COC(=O)C[C@H](NC(=O)OC(C)(C)C)C(=O)N(CCNc1ccccc1)C1(C(=O)NCc2ccccc2)CCN(Cc2ccccc2)CC1` [Compound 29], in the data set on HCoV-229E (setting [2]), the 50% effective concentration (EC50) turned out to be 3.2 ± 0.4 µM. Also, the EC50 in the data set with HCoV-229E (setting [3]) is 3 ± 0.1 µM. In the data set on HCoV-229E, the “Selectivity Index MTS” value was 11 and the “Selectivity Index Microscopy” value is reported as 25. Besides, the “Cytotoxicity MCC” value in data set [1] is recorded as 75 µM. In the data set “in vitro”, the CC50 is 36 ± 9 µM.
Turning to `COC(=O)CCC(=O)N(Cc1ccc(F)cc1)C1(C(=O)NCc2ccccc2)CCN(Cc2ccccc2)CC1` [Compound 30], the EC50 in the data set with HCoV-229E (setting [2]) is 13 ± 2 µM; in the data set on HCoV-229E (setting [3]) it was 13 µM. For the same compound, the “Cytotoxicity MCC” value in data set [1] stood at 100 µM. For the same compound, the CC50 in “in vitro” is 64 ± 3 µM.
The corresponding values for `COC(=O)C[C@H](N)C(=O)N(Cc1ccc(F)cc1)C1(C(=O)NCc2ccccc2)CCN(Cc2ccccc2)CC1` [Compound 31] are 2.8 ± 0.5 µM, 3.3 ± 0.2 µM, 11 µM and 4.9 ± 1.5 µM.
On the same counts, the results for `COC(=O)C[C@H](N)C(=O)N(Cc1ccccc1)C1(C(=O)NCc2ccccc2)CCN(Cc2ccccc2)CC1` [Compound 32] are 62 ± 7 µM, 55 ± 3 µM, above 100 µM and above 100 µM.
The corresponding values for `COC(=O)C[C@H](NC(=O)OCC1c2ccccc2-c2ccccc21)C(=O)N(Cc1ccccc1)C1(C(=O)NCc2ccccc2)CCN(Cc2ccccc2)CC1` [Compound 35] are 26 ± 9 µM, 36 ± 14 µM, above 100 µM and above 100 µM.
`CCC(C)N(C(=O)[C@H](CC(=O)OC)NC(=O)OCc1ccccc1)C1(C(=O)NCc2ccccc2)CCN(Cc2ccccc2)CC1` (some centres unmarked) [Compound 36]: the concentration for a half-maximal effect (EC50) in the data set with HCoV-229E (setting [2]) stood at 6.2 ± 0.8 µM; in the data set on HCoV-229E (setting [3]) it was 9.2 ± 0.5 µM. Moreover, the “Cytotoxicity MCC” value in data set [1] turned out to be 40 µM. The same compound gave a CC50 in “in vitro” of 27 ± 1 µM.
On the same counts, the results for `COC(=O)C[C@H](NC(=O)OCc1ccccc1)C(=O)N(C1CC1)C1(C(=O)NCc2ccccc2)CCN(Cc2ccccc2)CC1` [Compound 37] are above 100 µM, 3 ± 0.1 µM, 11 µM and 3.6 ± 0.1 µM.
For `C[C@H](NC(=O)OC(C)(C)C)C(=O)N(Cc1ccc(F)cc1)C1(C(=O)NCc2ccccc2)CCN(Cc2ccccc2)CC1` [Compound 38], the EC50 was 15 ± 3 µM with HCoV-229E (setting [2]) and 12 ± 1 µM in the data set with HCoV-229E (setting [3]). The “Cytotoxicity MCC” value in data set [1] was 100 µM. In addition, in “in vitro”, the CC50 is 48 ± 2 µM.
On the same counts, the results for `CC(C)(C)OC(=O)NCC(=O)N(Cc1ccccc1)C1(C(=O)NCc2ccccc2)CCN(Cc2ccccc2)CC1` [Compound 39] are 15 ± 2 µM, 11 µM, 100 µM and 49 ± 1 µM.
For `COC(=O)CC[C@H](NC(=O)OC(C)(C)C)C(=O)N(Cc1ccc(F)cc1)C1(C(=O)NCc2ccccc2)CCN(Cc2ccccc2)CC1` [Compound 40], the half-maximal effective concentration (EC50) turned out to be 11 ± 4 µM with HCoV-229E (setting [2]) and 4.8 ± 1.7 µM in the data set on HCoV-229E (setting [3]). In addition, the “Selectivity Index Microscopy” value in the data set with HCoV-229E is reported as 21. In data set [1], the “Cytotoxicity MCC” value is listed as 100 µM. In the data set “in vitro”, this compound returned a CC50 of 50 ± 3 µM.
As for `CC(C)(C)OC(=O)N[C@@H](CC(N)=O)C(=O)N(Cc1ccc(F)cc1)C1(C(=O)NCc2ccccc2)CCN(Cc2ccccc2)CC1` [Compound 41], the EC50 was found to be 64 ± 8 µM in the data set with HCoV-229E (setting [2]) and 54 ± 4 µM in the data set on HCoV-229E (setting [3]). Moreover, the “Cytotoxicity MCC” value in data set [1] was above 100 µM. The CC50 in “in vitro” is 82 ± 13 µM.
The corresponding values for `CC(C)(C)OC(=O)N[C@@H](CC(N)=O)C(=O)N(Cc1ccccc1)C1(C(=O)NCc2ccccc2)CCN(Cc2ccccc2)CC1` [Compound 42] are 16 ± 3 µM, 13 µM, 100 µM and 40 ± 6 µM.
On the same counts, the results for `CC(C)(C)OC(=O)N[C@@H](CC(=O)O)C(=O)N(Cc1ccc(F)cc1)C1(C(=O)NCc2ccccc2)CCN(Cc2ccccc2)CC1` [Compound 43] are above 100 µM, above 100 µM, above 100 µM and above 100 µM.
